ChEMBL document CHEMBL3044824, “Synthesis and Acaricidal Activity of 1-Arylmethyl-2-arylimidazolidines” (2001)

Assays:
Format in all cases: functional
Tetranychus urticae [1] = assay: Acaricidal activity against Tetranychus urticae (two-spotted spider mite) in second leaf stage of Phaseolus vulgaris var. Serena assessed as mortality at 500 ppm after 7 days
Tetranychus urticae [2] = assay: Acaricidal activity against Tetranychus urticae (two-spotted spider mite) in second leaf stage of Phaseolus vulgaris var. Serena assessed as mortality at 200 ppm after 7 days
Tetranychus urticae [3] = assay: Acaricidal activity against Tetranychus urticae (two-spotted spider mite) in second leaf stage of Phaseolus vulgaris var. Serena assessed as mortality at 100 ppm after 7 days
Tetranychus urticae [4] = assay: Acaricidal activity against Tetranychus urticae (two-spotted spider mite) in second leaf stage of Phaseolus vulgaris var. Serena assessed as mortality at 50 ppm after 7 days

Structure (SMILES) | Activity (Tetranychus urticae [1]) [%] | Activity (Tetranychus urticae [2]) [%] | Activity (Tetranychus urticae [3]) [%] | Activity (Tetranychus urticae [4]) [%]
c1ccc(C2=NCCN2c2ccccc2)cc1 | <24 | – | – | –
c1ccc(CN2CCN=C2c2cccnc2)cc1 | 25 | – | – | –
Clc1ccc(CN2CCN=C2c2ccccc2)c(Cl)c1 | 25 | – | – | –
Clc1ccc(CN2CCN=C2c2ccccc2)cc1 | >80 | >80 | >80 | >80
Cc1ccc(CN2CCN=C2c2ccccc2)cc1 | <24 | – | – | –
c1cncc(CN2CCN=C2c2cccnc2)c1 | >80 | 50 | 25 | –
COc1ccc(CN2CCN=C2c2ccccc2)cc1 | <24 | – | – | –
c1ccc(C2=NCCN2Cc2ccc(-c3ccccc3)cc2)cc1 | >80 | >80 | 50 | 25
c1ccc(C2=NCCN2Cc2cccnc2)cc1 | >80 | 50 | 25 | –
Clc1ccc(CN2CCN=C2c2ccccc2)cn1 | 50 | <24 | – | –
Clc1cccc(Cl)c1CN1CCN=C1c1ccccc1 | >80 | 25 | – | –
CC(C)(C)c1ccc(CN2CCN=C2c2ccccc2)cc1 | >80 | 50 | 25 | –
c1ccc(CCN2CCN=C2c2ccccc2)cc1 | 25 | – | – | –
Clc1cccc(CN2CCN=C2c2ccccc2)c1 | >80 | 25 | – | –
CC1(C)CN=C(c2ccccc2)N(Cc2ccc(Cl)cc2)C1 | >80 | 50 | 25 | –
Clc1ccc(CN2CCN=C2c2cccnc2)cc1 | >80 | >80 | 50 | 25
Clc1ccc(CC2=NCCN2Cc2ccc(Cl)cc2)cc1 | <24 | – | – | –
c1ccc(C2=NCCN2Cc2ccncc2)cc1 | >80 | 50 | >80 | –
Clc1cccc(C2=NCCN2Cc2ccccc2)c1 | <24 | – | – | –
Clc1ccc(CN2CCN=C2c2cccnc2)cn1 | 50 | 25 | – | –
c1ccc(CC2=NCCN2Cc2ccccc2)cc1 | <24 | – | – | –
Clc1ccccc1C1=NCCN1Cc1ccccc1 | >80 | 50 | 25 | –
Clc1ccc(C2=NCCN2Cc2ccccc2)cc1 | <24 | – | – | –
Clc1ccccc1CN1CCN=C1c1ccccc1 | >80 | 50 | 25 | –
Clc1ccc(CN2CCCN=C2c2ccccc2)cc1 | 50 | 25 | – | –
c1ccc(CN2CCN=C2c2ccccc2)cc1 | 50 | 25 | – | –
Fc1cccc(F)c1C1=NCCN1Cc1ccc(Cl)cc1 | >80 | >80 | >80 | 25
Fc1cccc(F)c1C1=NCCN1Cc1ccccc1 | >80 | >80 | >80 | >80
